Data taken from patent US20050288360A1, “Nutraceutical compositions comprising epigallocatechin gallate and raspberry ketone” (priority 2002, published 2005).
Marks after values point to notes of the source that are not given here.

How the values were obtained:
[1] = system: C57BLKS/J db/db mice; experiment: 5-week body weight study in db/db mice; assay type: in vivo; details: for Body weight, Initial: baseline, male db/db mice, standard rodent food; for Body weight, Initial / Body weight, Week 2 / Body weight, Week 4: feed-ad-mix 1400 mg/kg BW/day each, group mean; for Body weight decrease, Week 2 / Body weight decrease, Week 4: decrease in comparison to control group, 1400 mg/kg BW/day each
Method: The efficacy of the combination of EGCG and RK as well as of both compounds alone on body weight and adiposity was tested in a 5-week study in C57BLKS/J db/db mice (n=8-9/group). This model of late type 2 diabetes with severe hyperglycemia and obesity is widely used to determine the efficacy of anti-diabetic and anti-obesity compounds. Male db/db mice were obtained from Jackson Laboratory (Bar Harbor, Me., USA). Adult mice aged 8 weeks were used in the experiment. Mice were housed individually in plastic cages with bedding and allowed free access to standard rodent food and tap water. The animal rooms were controlled for temperature (24° C.), humidity (55%), and light (12-h light-dark cycle). The animals were randomized into four groups. EGCG and RK were administered as feed-ad-mix. Corn cellulose (2% of diet) served as a carrier substance for EGCG and RK as well as a placebo when used alone. Group 1 received placebo, group 2 received EGCG at a dose of 1400 mg/kg BW/day, group 3 received RI<at a dose of 1400 mg/kg BW/day, and group 4 received the combination of EGCG and RK at a doses of 1400 and 1400 mg/kg BW/day, respectively. Body weight and food intake were determined over the course of the study. All data are expressed as means for animals in each diet group. There was no difference in food intake between the groups over the study period. The decrease in body weight in comparison to the control group caused by each treatment was calculated (data are shown in Table 4). The expected treatment effect of the combined therapy with EGCG and RK was calculated by the sum of the effects exerted by monotherapy with EGCG or RK. The synergistic factor (SF) is defined as the quotient of the observed effect and the expected effect. If SF>1, a synergistic effect was exerted by the combined treatment.

[2] = system: C57BL6/J mice fed a high fat, high sucrose diet; experiment: 4-week body weight study in diet-induced obese mice; assay type: in vivo; details: for Body weight compared to control mice (in words): 4 week study period; for Body weight compared to control mice (in words) / Body weight, Initial / Body weight, Week 2 / Body weight, Week 4: high fat high sucrose diet; for Body weight, Initial: baseline, male C57BL6/J mice; for Body weight, Initial / Body weight, Week 2 / Body weight, Week 4: feed-ad-mix 1400 mg/kg BW/day each, group mean; for Body weight decrease, Week 2 / Body weight decrease, Week 4: decrease in comparison to control group, 1400 mg/kg BW/day each
Method: The efficacy of the combination of EGCG and RK as well as of both compounds alone on body weight and adiposity was tested in a 4-week study in C57BL6/J mice fed a high fat, high sucrose diet (n=8-11/group). This model of diet-induced obesity and early type 2 diabetes is widely used to determine the efficacy of anti-obesity compounds. Male C57BL6/J mice were obtained from Jackson Laboratory (Bar Harbor, Me., USA). Adult mice aged […] were used in the experiment. Mice were housed individually in plastic cages with bedding and allowed free access to a high fat, high sucrose mouse diet (Kliba # 2154, Klibamuehle, Kaiseraugst, Switzerland) and tap water. The animal rooms were controlled for temperature (24° C.), humidity (55%), and light (12-h light-dark cycle). The animals were randomized into four groups. EGCG and RK were administered as feed-ad-mix. Corn cellulose (2% of diet) served as a carrier substance for EGCG and RK as well as a placebo when used alone. Group 1 received placebo, group 2 received EGCG at a dose of 1400 mg/kg body weight (BW)/day, group 3 received RK at a dose of 1400 mg/kg BW/day, and group 4 received the combination of EGCG and RK at a doses of 1400 and 1400 mg/kg BW/day, respectively. Body weight and food intake were determined over the course of the study. All data are expressed as means for animals in each diet group. There was no difference in food intake between the groups over the study period. […] The decrease in body weight in comparison to the control group caused by each treatment was calculated (data are shown in Table 2). The expected treatment effect of the combined therapy with EGCG and RK was calculated by the sum of the effects exerted by monotherapy with EGCG or RK. The synergistic factor (SF) is defined as the quotient of the observed effect and the expected effect. If SF>1, a synergistic effect was exerted by the combined treatment.

| Compound | Body weight, Initial [1] | Body weight compared to untreated control (in words), after four weeks of treatment ([1]; db/db mice) | Body weight compared to control mice (in words), week 2 ([1]; db/db mice, week 2) | Body weight decrease, Week 2 ([1]; week 2) | Body weight decrease, Week 4 [1] | Body weight, Week 2 ([1]; week 2, db/db mice) | Body weight, Week 4 ([1]; db/db mice) | Body weight compared to control mice (in words) [2] | Body weight, Initial [2] | Body weight decrease, Week 2 [2] | Body weight decrease, Week 4 [2] | Body weight, Week 2 [2] | Body weight, Week 4 [2] | Body weight compared to control (in words), during the study period ([1]; db/db mice, whole study period) |
| --- | --- | --- | --- | --- | --- | --- | --- | --- | --- | --- | --- | --- | --- | --- |
| O=C(O[C@@H]1Cc2c(O)cc(O)cc2O[C@@H]1c1cc(O)c(O)c(O)c1)c1cc(O)c(O)c(O)c1 [EGCG, epigallocatechin gallate] | 32.2 g | neither EGCG nor RK caused a significant decrease in body weight | significant decrease in body weight | 3.0 g | 0.8 g | 35.7* g | 37.7 g | significant decrease in body weight | 11.4 g | 2.7 g | 2.2 g | 17.7* g | 21.4* g |  |
| CC(=O)CCc1ccc(O)cc1 [RK, 4-(4-hydroxyphenyl)-2-butanone] | 32.5 g | neither EGCG nor RK caused a significant decrease in body weight |  | 0.3 g | 0.4 g | 38.4 g | 38.0 g | significant decrease in body weight | 11.5 g | 1.6 g | 1.5 g | 19.0* g | 22.1* g | did not significantly decrease body weight |
